Reference: patent US6613322B2, “Method for treating a subject suffering from conditions associated with an extracellular zinc sphingomyelinase” (The Trustees of Columbia University in the City of New York, priority 1997, dated 2003)

Experiments:
[1] = biological target: T1, S-SMase (Mus musculus, UniProt Q04519); experiment: SMase assay of conditioned medium from J774 macrophages (SM micelles, pH 5.0); type: biochemical; conditions: treatment with EDTA alone
T1 construct: endogenous in cells; host or cells: J774.A1 macrophages, serum-free conditioned medium
T1 sequence (Q04519 45-627): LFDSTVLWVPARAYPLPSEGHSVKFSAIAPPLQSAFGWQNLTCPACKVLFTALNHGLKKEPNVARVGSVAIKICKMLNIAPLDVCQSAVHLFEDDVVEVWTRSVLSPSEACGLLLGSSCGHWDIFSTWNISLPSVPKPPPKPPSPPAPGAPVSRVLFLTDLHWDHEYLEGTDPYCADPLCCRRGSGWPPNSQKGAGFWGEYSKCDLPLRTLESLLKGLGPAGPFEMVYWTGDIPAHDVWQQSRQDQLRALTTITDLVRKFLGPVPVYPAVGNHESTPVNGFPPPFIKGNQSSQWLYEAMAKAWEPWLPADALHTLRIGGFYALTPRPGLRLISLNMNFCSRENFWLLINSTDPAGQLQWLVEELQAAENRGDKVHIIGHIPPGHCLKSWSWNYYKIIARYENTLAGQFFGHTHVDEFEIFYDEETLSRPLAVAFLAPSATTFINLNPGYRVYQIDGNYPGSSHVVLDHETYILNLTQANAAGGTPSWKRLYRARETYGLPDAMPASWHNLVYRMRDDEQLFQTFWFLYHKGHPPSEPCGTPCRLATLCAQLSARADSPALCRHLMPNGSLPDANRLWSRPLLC
Experimental: FIGS. 14A-B. Sequential chelation and addition of Zn^2+ to secreted and intracellular SMase. Serum-free conditioned medium and a cell homogenate from J774 macrophages were prepared as described in “Experimental Procedures”. FIG. 14A, conditioned medium (CM) was assayed for SMase activity using 250 nM [^3H]sphingomyelin in Triton X-100 micelles in the presence of either 5 mM EDTA (first bar) or 0.1 mM ZnCl2 (second bar) for 1 h at 37° C. at pH 5.0. An aliquot of the Zn-activated conditioned medium was then incubated for 18 h in the presence of 10 mM EDTA, 10 mM 1,10-phenanthroline, and 0.6% Triton X-100 at 4° C. (EDTA PHNANTH) and then assayed for SMase activity (third bar). After chelation, a portion of this partially inactivated conditioned medium was then dialyzed against zinc-containing buffer C (150 mM NaCl, 10 mM Tris-HCl, 1 mM ZnCl2, 0.6% Triton X-100, pH 7.4) for 18 h and then assayed for SMase activity (fourth bar). FIG. 14B, an aliquot of cell homogenate (Cell Homgn) was assayed for SMase activity in the presence of assay buffer alone (first bar), 5 mM EDTA (second bar), or 0.1 mM ZnCl2 (third bar). Another aliquot of cell homogenate was incubated for 8 h in the presence of 10 mM EDTA, 10 mm 1,10-phenanthroline, and 0.6% Triton X-100 (EDTA PHNANTH) at 4° C. and then assayed for SMase activity (fourth bar). An aliquot of this chelator-treated cell homogenate was then dialyzed against zinc-containing buffer C for 18 h and then assayed for SMase activity (fifth bar).
(§1) SMase Assay—As previously described (Schissel et al., 1996), the standard 200-μl assay mixture consisted of up to 40 μl of sample (conditioned media or homogenized cells; see above) and a volume of assay buffer (0.1 M sodium acetate, pH 5.0) to bring the volume to 160 μl. […] The ceramide spots were scraped and directly counted to quantify [^3H]ceramide. Typically, the assay reactions contained approximately 20 μg of cellular homogenate protein and a volume of conditioned media derived from a quantity of cells equivalent to approximately 50 μg of cellular protein.

[2] = biological target: B. cereus SMase (Bacillus cereus, UniProt P11889); conditions: 25 mM EDTA present from the start; 50 mU B. cereus SMase/ml, LDL 2 mg/ml, 37° C.
Experimental: Kinetics of SM hydrolysis and LDL aggregation induced by SMase and the effects of enzymatic inhibition. FIG. 1A: LDL (2 mg/ml) was incubated with 50 mU B. cereus SMase/ml at 37° C. in PES containing 5 nM MgCl2. At the indicated time points, aliquots of the LDL were harvested then assayed for extent of SM hydrolysis (closed triangles) and for aggregation (open squares) FIG. 1B. LDL was incubated in PBS containing 5 mM MgCl2 in the absence of SMase (filled circles), or in the presence of SMase without EDTA (open squares), with 25 mM EDTA present from the start of the incubation (open triangles), or with 25 mM EDTA added after 20 min of incubation (closed triangles) Samples were assayed for turbidity at the indicated timepoints. FIG. 1C, Aliquots from the 180-min timepoint in FIG. 1B were assayed for SM content.
Careful analysis of the time course of B. cereus SMase-induced LDL aggregation and LDL-SM hydrolysis was done. […] These kinetics are consistent with two possible mechanisms: a slow structural action of SMase, or a rapid enzymatic action that alters the particles so that they then slowly aggregate. To distinguish between these possibilities, EDTA was used to inhibit the enzymatic activity of the bacterial B. cereus SMase, which is a Mg^2+-dependent enzyme (Ikezawa et al., 1986).

[3] = biological target: T2, L-SMase (Mus musculus, UniProt Q04519); experiment: SMase assay of cell homogenate from J774 macrophages (SM micelles, pH 5.0); type: biochemical; conditions: 5 mM EDTA in assay
T2 construct: endogenous in cells; host or cells: J774.A1 macrophages, sonicated cell homogenate
T2 sequence (Q04519 45-627): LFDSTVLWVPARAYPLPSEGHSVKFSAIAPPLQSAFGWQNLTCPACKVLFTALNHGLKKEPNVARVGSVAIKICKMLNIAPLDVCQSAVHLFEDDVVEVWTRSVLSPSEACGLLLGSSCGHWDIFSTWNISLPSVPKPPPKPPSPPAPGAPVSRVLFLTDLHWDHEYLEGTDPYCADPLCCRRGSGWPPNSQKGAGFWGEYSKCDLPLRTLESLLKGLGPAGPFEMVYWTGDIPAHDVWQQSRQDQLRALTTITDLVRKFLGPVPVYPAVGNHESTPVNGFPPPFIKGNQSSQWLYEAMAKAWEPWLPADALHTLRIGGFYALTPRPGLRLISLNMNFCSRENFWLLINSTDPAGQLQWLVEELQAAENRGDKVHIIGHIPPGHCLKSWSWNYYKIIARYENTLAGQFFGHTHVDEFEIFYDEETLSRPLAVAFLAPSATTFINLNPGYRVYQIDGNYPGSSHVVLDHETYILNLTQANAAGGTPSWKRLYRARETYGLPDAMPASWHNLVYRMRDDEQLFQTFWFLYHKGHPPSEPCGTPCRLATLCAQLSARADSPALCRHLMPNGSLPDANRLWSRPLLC
Experimental: FIGS. 14A-B. Sequential chelation and addition of Zn^2+ to secreted and intracellular SMase. Serum-free conditioned medium and a cell homogenate from J774 macrophages were prepared as described in “Experimental Procedures”. FIG. 14A, conditioned medium (CM) was assayed for SMase activity using 250 nM [^3H]sphingomyelin in Triton X-100 micelles in the presence of either 5 mM EDTA (first bar) or 0.1 mM ZnCl2 (second bar) for 1 h at 37° C. at pH 5.0. An aliquot of the Zn-activated conditioned medium was then incubated for 18 h in the presence of 10 mM EDTA, 10 mM 1,10-phenanthroline, and 0.6% Triton X-100 at 4° C. (EDTA PHNANTH) and then assayed for SMase activity (third bar). […]
as §1

[4] = tested on: arterial-wall SMase; conditions: for hydrolysis of LDL-sphingomyelin by rabbit aorta ex vivo (summary statement): Example 4 restatement
Experimental: Hydrolysis of [^3H]SM-LDL by strips of rabbit aorta. Aortae were isolated from rabbits fed a high-cholesterol diet for 18 d and incubated ex vivo for 3.5 h at 37° C. with 2 mg [^3H]palmitate-SM-labeled LDL per ml DMEM/0.2% BSA (usually ^18 12 mg total). Material extracted from these strips (Retained) was assayed for [^3H]SM and [^3H]ceramide; approximately 0.1% of the [^3H]SM-LDL (10-20 μg LDL protein) was retained during the 3.5-h incubation period. These [^3H]lipids were also assayed in ^3[H]SM-LDL not exposed to aorta but incubated in extraction buffer (No Aorta) as well as in [^3H]SM-LDL that was not retained by the aortic strips (i.e., still present in the medium after the 3.5-h incubation) and also incubated in extraction buffer (Unretained). For experiments #1 and #2 (FIG. 6A), portions of the aortic strips were preincubated with DMEM/0.2% BSA containing 15 mM EDTA for 30 min, and the 3.5-h incubation was also carried out in the presence of 15 mM EDNA.
Assay for LDL-SM hydrolysis by strips of rabbit aorta ex vivo. New Zealand white male rabbits (2-3 kg) were fed a chow diet containing 0.2% cholesterol and 10% soybean oil (w/w) for 18 days. The animals were sacrificed, and the thoracic aortae were removed rapidly and placed in a dissection dish with physiological Hank's Trizma maleate buffer (133 mM NaCl, 3.6 mM KCl, 1.0 mM CaCl2, 5.0 mM Trizma maleate, 16 mM dextrose, pH 7.3). The aortae were then further dissected to remove excess fat and any clotted blood and then cut longitudinally and pinned, lumen side up, in a tissue culture dish. The aortic strips were washed several times with DMEM/0.2% BSA and incubated at 37° C. for 3.5 h in DMEM/0.2% BSA containing 2 mg [^3H]SM-labeled LDL per ml. […] When present, these reagents were also added to the corresponding incubation media containing labeled LDL (see legend to FIG. 5). After the 3.5-h incubation of labeled LDL with aortic strips, media were removed (see below), the aortic strips were quickly washed twice in ice-cold PBS, and the center of the strip was cut away from the original cut ends. These center pieces were then minced and extracted in PBS, pH 7.4, containing 6 M guanidine-HCl, 5 mM EDTA, 0.02% sodium azide, 35 μM leupeptin, 1.5 mg aprotinin/ml, and 5 μM pepstatin A for 36 h at 4° C. The extract was centrifuged at 35,000×g for 30 min, and lipids were extracted from the supernate by the method of Bligh and Dyer (Bligh et al., 1959). [^3H]palmitate-SM, ^3 [H]palmitate-ceramide, and free [^3H]palmitate in the lipid extracts were separated by TLC using chloroform:methanol (95:5, v/v) or n-propanol:12.5% ammonium hydroxide (80:20, v/v). […]

[5] = tested on: lysosomal hydrolases; experiment: 125I-EGF degradation by aortic strips; set-up: species or system rabbit; conditions: 200 μM chloroquine, 3.5 h
Experimental: Iodination of EGF and assay for ^125I-EGF degradation. Epidermal growth factor (50 μg) was radioiodinated to a specific activity of 5400 counts/min/ng (IODOBEADS®, Pierce Chemical Co., Rockford, Ill.) and was used within 48 h of labeling.
For this study, ^125I-labeled epidermal growth factor (^125I-EGF) was used, which is known to be internalized by receptor-mediated endocytosis and degraded in lysosomes in many cell types (Goldstein et al., 1985).

[6] = biological target: T3, lysosomal SMase (Homo sapiens, UniProt P17405); experiment: Cellular hydrolysis of [3H]SM-LDL by cultured human fibroblasts; type: cell-based; conditions: read-out: inhibition of cellular hydrolysis of [3H]SM-LDL
T3 construct: endogenous in cells; host or cells: cultured human fibroblasts
T3 sequence (P17405 47-631): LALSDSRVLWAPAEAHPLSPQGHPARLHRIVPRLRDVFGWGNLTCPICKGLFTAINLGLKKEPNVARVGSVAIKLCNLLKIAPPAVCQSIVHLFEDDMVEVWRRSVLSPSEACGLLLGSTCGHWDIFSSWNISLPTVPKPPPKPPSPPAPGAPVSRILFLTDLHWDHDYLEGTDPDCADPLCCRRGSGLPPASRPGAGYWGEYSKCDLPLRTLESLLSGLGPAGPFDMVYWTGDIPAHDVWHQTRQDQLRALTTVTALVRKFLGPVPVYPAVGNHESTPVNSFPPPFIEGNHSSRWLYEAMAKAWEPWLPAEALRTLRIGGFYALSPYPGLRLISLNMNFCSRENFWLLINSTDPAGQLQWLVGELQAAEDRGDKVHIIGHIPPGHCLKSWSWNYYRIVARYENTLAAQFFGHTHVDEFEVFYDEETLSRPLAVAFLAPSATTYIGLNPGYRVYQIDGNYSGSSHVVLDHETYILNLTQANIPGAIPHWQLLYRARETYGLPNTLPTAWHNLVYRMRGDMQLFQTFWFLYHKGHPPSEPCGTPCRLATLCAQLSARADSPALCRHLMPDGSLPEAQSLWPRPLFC
Experimental: Second, the ability of chloroquine to work in the aortic strip assay was tested.

[7] = tested on: S-SMase secretion by HUVECs; experiment: Cytokine regulation of S-SMase secretion by HUVECs (SMase activity in conditioned media); type: cell-based, human; conditions: 18 h, IL-1β 5 ng/ml, interferon-γ 1000 units/ml
Experimental: The cells were then washed 3 times with PBS and incubated for 24 h in 1 ml fresh serum-free media containing 0.2%6 BSA. This 24-h conditioned medium was collected for SMase assays.
Harvesting of Cells and Conditioned Media—Following the incubations described above and in the figure legends, cells were placed on ice and the serum-free conditioned media was removed. The cells were washed two times with ice-cold 0.25 M sucrose and scraped into 0.3 ml and 3.0 ml of this sucrose solution per 35-mm and 100-mm dishes, respectively. Unless indicated otherwise, the scraped cells were disrupted by sonication on ice using three 5-second bursts (Branson 450 Sonifier), and the cellular homogenates were assayed for total protein by the method of Lowry et al. (22) and for SMase activity as described below. The conditioned media were spun at 800×g for 5 min to pellet any contaminating cells and concentrated six-fold using a Centriprep 30 (Amicon; Beverly, Mass.) concentrator (molecular weight cut off=30,000).
Typically, our assay reactions contained approximately 20 μg of cellular homogenate protein and a volume of conditioned media derived from a quantity of cells equivalent to approximately 50 μg of cellular protein.

[8] = tested on: L-SMase of HUVECs; experiment: Cytokine regulation of L-SMase activity in HUVEC cell homogenates; type: cell-based, human; conditions: cytokine-treated endothelial cells
Experimental: FIGS. 23A-B. Cytokine regulation of S- and L-SMase of HUVECs. […] Conditioned media (FIG. 23A) and cell homogenates (FIG. 23B) from these cells were then assayed for SMase activity in the presence or absence of 0.1 mM ZnCl2, respectively.
Cells—Primary cultures of HUVEC were obtained from fresh umbilical cords and maintained in cell culture as previously described (31). Human coronary artery endothelial cells from a donor were purchased from Clonetics Corp. (San Diego, Calif.; cat. # CC-2585, Strain #3033). The cells were grown in endothelial basal media (EBM) (Clonetics) supplemented with 10% HI-FES; 10 μg endothelial cell growth supplement/ml (Sigma; cat. # E0760) and 50 μg gentamicin/ml. Primary cultures of bovine aortic endothelial, cells were established and subcultured as described previously (32). […]

[9] = tested on: EC matrix; experiment: 125I-S-SMase binding to matrix derived from cultured cells; conditions: in presence of lipoprotein lipase
Excerpt: In vitro, Smase causes lipoprotein aggregation, which is a key feature of atheromata and an inducer of foam cells. […] We have identified S-Mase (JBC 271:18431) as a candidate for this arterial Smase, owing to its secretion by endothelial cells (ECs) and macrophages and for its ability to hydrolzye atherogenic lipoproteins (JBC 273:2738 & 4081). We addressed two questions critical to the role of S-SMase in atherogenesis: is S-SMase present in lesions and does S-SMase bind matrix after secretion? Using two different anti-SMase antibodies, Smase staining was prominent in the endothelium of normal rabbit and mouse aorta. In atherosclerotic aorta from cholesterol-fed rabbits and apoE knockout mice and in human coronary lesions, there was very heavy Smase staining throughout the entire intima (endothelium and foam cells). In both normal and lesional aorta, there was staining of the mdia but far less than in the intima. […] To explore this point in vitro, ^125I-S-SMase was incubated with matrix derived from cultured smooth muscle or Ecs. With both, the moles of bound ^125I-S-SMase were≧bound ^125I-LDL, which is known to associate with matrix in vitro and in vivo. […] In summary, Smase, an enzyme implicated in atherogenesis, is present in normal endothelium and especially lesional intima, and there is evidence that S-Mase binds matrix both in vivo and in vitro.

Chain of B. cereus SMase (P11889 28-333): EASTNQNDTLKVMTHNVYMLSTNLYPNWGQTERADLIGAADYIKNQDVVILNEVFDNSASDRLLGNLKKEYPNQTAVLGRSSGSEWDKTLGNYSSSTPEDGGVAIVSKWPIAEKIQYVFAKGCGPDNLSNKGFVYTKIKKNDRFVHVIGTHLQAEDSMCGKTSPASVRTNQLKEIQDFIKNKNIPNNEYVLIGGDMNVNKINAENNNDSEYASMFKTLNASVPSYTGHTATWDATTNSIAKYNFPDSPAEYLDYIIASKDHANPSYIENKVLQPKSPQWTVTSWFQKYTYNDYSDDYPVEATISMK

O=C(O)CN(CCN(CC(=O)O)CC(=O)O)CC(=O)O [EDTA]
effect on S-SMase enzyme activity [1]: did not affect enzyme activity | inhibition of LDL aggregation (turbidity) [2]: complete inhibition | inhibition of LDL-SM hydrolysis [2]: complete inhibition | inhibition of L-SMase in cell homogenates [3]: not inhibited | decrease in generation of ceramide in extracted (retained) material ([4]; 15 mM EDTA, 30 min preincubation and 3.5-h incubation with [3H]SM-LDL): approximately 50% | hydrolysis of LDL-sphingomyelin by rabbit aorta ex vivo (summary statement) [4]: inhibited

CCN(CC)CCCC(C)Nc1ccnc2cc(Cl)ccc12 (stereo not shown) [chloroquine]
block of degradation of 125I-EGF [5]: 50% | inhibition at 50 µM [6]: 73% | inhibition of [3H]ceramide enrichment of retained material ([4]; 200 μM chloroquine, 30 min preincubation and 3.5-h incubation): no substantial inhibition | hydrolysis of LDL-sphingomyelin by rabbit aorta ex vivo (summary statement) [4]: not inhibited

B1: interferon-γ: human recombinant interferon-γ (protein, UniProt P01579 24-161, looked up)
Interferon gamma: QDPYVKEAENLKKYFNAGHSDVADNGTLFLGILKNWKEESDRKIMQSQIVSFYFKLFKNFKDDQSIQKSVETIKEDMNVKFFNSNKKKRDDFEKLTNYSVTDLNVQRKAIHELIQVMAELSPAAKTGKRKRSQMLFRG
increase of S-SMase activity / secretion (conditioned media) [7]: ~3 fold | L-SMase (lysosomal SMase) activity [8]: decreased

B2: lipoprotein lipase: arterial-wall enzyme (protein, UniProt P06858 28-475, looked up)
Lipoprotein lipase: ADQRRDFIDIESKFALRTPEDTAEDTCHLIPGVAESVATCHFNHSSKTFMVIHGWTVTGMYESWVPKLVAALYKREPDSNVIVVDWLSRAQEHYPVSAGYTKLVGQDVARFINWMEEEFNYPLDNVHLLGYSLGAHAAGIAGSLTNKKVNRITGLDPAGPNFEYAEAPSRLSPDDADFVDVLHTFTRGSPGRSIGIQKPVGHVDIYPNGGTFQPGCNIGEAIRVIAERGLGDVDQLVKCSHERSIHLFIDSLLNEENPSKAYRCSSKEAFEKGLCLSCRKNRCNNLGYEINKVRAKRSSKMYLKTRSQMPYKVFHYQVKIHFSGTESETHTNQAFEISLYGTVAESENIPFTLPEVSTNKTYSFLIYTEVDIGELLMLKLKWKSDSYFSWSDWWSSPGFAIQKIRVKAGETQKKVIFCSREKVSHLQKGKAPAVFVKCHDKSLNKKSG
S-SMase binding to matrix [9]: enhanced
